Target: T1, horseradish peroxidase (HRP) (Armoracia rusticana, UniProt P00433)
T1 construct: gene PRXC1A; commercial horseradish peroxidase
T1 sequence (P00433 31-338): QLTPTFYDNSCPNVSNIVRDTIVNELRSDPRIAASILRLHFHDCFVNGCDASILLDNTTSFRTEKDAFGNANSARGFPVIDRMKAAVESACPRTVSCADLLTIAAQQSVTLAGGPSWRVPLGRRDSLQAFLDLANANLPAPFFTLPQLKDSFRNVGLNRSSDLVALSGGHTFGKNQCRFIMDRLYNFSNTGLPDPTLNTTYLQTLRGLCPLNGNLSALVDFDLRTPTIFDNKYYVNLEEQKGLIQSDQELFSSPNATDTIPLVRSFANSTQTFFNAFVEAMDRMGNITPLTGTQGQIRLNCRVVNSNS
Assay: UV-vis absorption difference spectra (data not shown)
Assay type: binding

SMILES: CC(=O)O [acetate]
- UV-vis absorption difference spectra (data not shown): both HRP and PKS demonstrated similar effects with acetate in the current study (data not shown)
